This passage reports activity, IC50 and inhibition results from patent US11447469B2, “Hetero ring-fused phenyl compounds for inhibiting TNIK and medical uses thereof” (Korea Research Institute of Chemical Technology, priority 2018, dated 2022).

Experiment [1] has as its target T1, TNIK (Homo sapiens (Human), UniProt Q9UKE5). In words: In vitro TNIK kinase assay using qPCR (competition binding with liganded affinity beads). The following applies: compound at 1 μM; kinase in eluate measured by qPCR. The method, then:
1. Efficacy of Inhibiting TNIK Activity, In Vitro TNIK Kinase Assay Using qPCR
For most assays, kinase-tagged T7 phage strains were grown in parallel in 24-well blocks in an E. coli host derived from the BL21 strain. E. coli were grown to log-phase and infected with T7 phage from a frozen stock (multiplicity of infection=0.4) and incubated with shaking at 32° C. until (90-150 minutes). The lysates were centrifuged (6,000×g) and filtered (0.2 μm) to remove cell debris. The remaining kinases were produced in HEK-293 cells and subsequently tagged with DNA for qPCR detection. Streptavidin-coated magnetic beads were treated with biotinylated small molecule ligands for 30 minutes at room temperature to generate affinity resins for kinase assays. The liganded beads were blocked with excess biotin and washed with blocking buffer (SeaBlock (Pierce), 1% BSA, 0.05% Tween 20, 1 mM DTT) to remove unbound ligand and to reduce non-specific phage binding. Binding reactions were assembled by combining kinases, liganded affinity beads, and test compounds in 1× binding buffer (20% SeaBlock, 0.17×PBS, 0.05% Tween 20, 6 mM DTT). Test compounds were prepared as 40× stocks in 100% DMSO and directly diluted into the assay. All reactions were performed in polypropylene 384-well plates in a final volume of 0.04 ml.
The assay plates were incubated at room temperature with shaking for 1 hour and the affinity beads were washed with wash buffer (1×PBS, 0.05% Tween 20). The beads were then re-suspended in elution buffer (1×PBS, 0.05% Tween 20, 0.5 μM non-biotinylated affinity ligand) and incubated at room temperature with shaking for 30 minutes. The kinase concentration in the eluates was measured by qPCR.
(In general: In qPCR the cycle at which signal appears reflects the starting amount.)

A further experiment relates to SW480 cells. In words: Cell viability assay (CCK-8) using SW480 cell. Format: cell-based. To be noted: Homo sapiens, 48 h exposure. As for the experimental part:
(§1) 3. Efficacy of Inhibiting Cancer Cells Using Colon Cancer Cell Lines
(§2) The human colon cancer cell line SW480 (Catalog No. CCL-228) and SW620 (Catalog No. CCL-227) were obtained from the American Type Culture Collection (ATCC), and maintained in DMEM (Thermo Fisher Scientific Inc., Waltham, Mass., USA) supplemented with 10% fetal bovine serum (FBS) (Thermo Fisher Scientific Inc., Waltham, Mass.), 100 U/ml penicillin, and 100 µg/ml streptomycin (Gibco, Gaithersburg, Md.). Cells were grown at 37° C. in 5% CO2 for confluence.
(§3) Cell viability was measured using the Cell Counting Kit-8 (Dojindo Molecular Technologies). SW480 and SW620 cells (2.5×10^4 cells/well) were seeded in 96-well plates and incubated for 24 h. After incubation, the cells were exposed to serially diluted compounds (0.1, 0.3, 1, 3, 10 and 30 µM) in 100 μl phenol free DMEM medium containing 0.1% FBS. After 48 h, CCK-8 reagent was added at 10 μl per well and incubated for 1 h at 37° C. Optical density was measured at 450 nm using a microplate reader (Bio-Rad Laboratories, Hercules, Calif.). The IC50 values were calculated using GraphPad Prism software (GraphPad Software Inc., La Jolla, Calif., USA) to determine kit performance. Experiments were performed in triplicate.

Experiment [2] has as its target T1, TNIK. In words: In vitro TNIK kinase assay using ADP-Glo Kinase Assay system. Format: biochemical. To be noted: 100 μM ATP, MBP substrate; for IC50: 37° C. 30 min; for inhibition at 1 µM: compound at 1 μM. As for the experimental part:
2. Efficacy of Inhibiting TNIK Activity, In Vitro TNIK Kinase Assay Using ADP-Glo™ Kinase Assay System
The inhibitory properties of compounds were evaluated with TNIK kinase enzyme system and luminescent ADP-Glo ? Kinase Assay from Promega Corporation according to the manufacturer's protocol. The tested compounds were incubated with TNIK kinases. Reactions were performed in 10 μl kinase buffer supplemented with reaction mixture containing 2 μl ATP, 2 μl MBP protein and 2 μl TNIK at 37° C. for 30 min. After kinase reaction, 5 μl reaction mixtures were transferred to 384 well assay plate (Greiner, solid white low-binding plates). Next, 5 μl of ADP-Glo Reagent was added to each well and incubated at 37° C. for 30 min. After 45 min, 10 μl Kinase Detection Reagent was added to each well and luminescence signal was detected with the SpectraMax M5e Microplate Reader (Molecular Devices, Menlo Park, Calif.) after 30 min at 37° C. incubation. The IC50 values were calculated using GraphPad Prism software (GraphPad Software Inc., La Jolla, Calif., USA) to determine kit performance. To the cut-off assay, the inhibitory activity of the compounds against TNIK kinase was expressed as the percentage of the kinase inhibitory activity for an indicated concentration of inhibitor. The IC s of the compounds against TNIK kinase values were calculated a log-concentration-response curve fitted with a four-parameter logistic equation and expressed dose-response curve for % of inhibitory activity versus log of the compound concentration.

A further experiment has as its system SW620 cells. Put plainly: Cell viability assay (CCK-8) using SW620 cell. The experiment is classed as cell-based. The following applies: Homo sapiens, SW-620, 48 h exposure. As for the experimental part:
as §1, §2, §3

A word on the IC50: it is the concentration that inhibits the measured activity by half. One may read the inhibition as the share of the control response that was lost under treatment.

T1 sequence (Q9UKE5 whole entry): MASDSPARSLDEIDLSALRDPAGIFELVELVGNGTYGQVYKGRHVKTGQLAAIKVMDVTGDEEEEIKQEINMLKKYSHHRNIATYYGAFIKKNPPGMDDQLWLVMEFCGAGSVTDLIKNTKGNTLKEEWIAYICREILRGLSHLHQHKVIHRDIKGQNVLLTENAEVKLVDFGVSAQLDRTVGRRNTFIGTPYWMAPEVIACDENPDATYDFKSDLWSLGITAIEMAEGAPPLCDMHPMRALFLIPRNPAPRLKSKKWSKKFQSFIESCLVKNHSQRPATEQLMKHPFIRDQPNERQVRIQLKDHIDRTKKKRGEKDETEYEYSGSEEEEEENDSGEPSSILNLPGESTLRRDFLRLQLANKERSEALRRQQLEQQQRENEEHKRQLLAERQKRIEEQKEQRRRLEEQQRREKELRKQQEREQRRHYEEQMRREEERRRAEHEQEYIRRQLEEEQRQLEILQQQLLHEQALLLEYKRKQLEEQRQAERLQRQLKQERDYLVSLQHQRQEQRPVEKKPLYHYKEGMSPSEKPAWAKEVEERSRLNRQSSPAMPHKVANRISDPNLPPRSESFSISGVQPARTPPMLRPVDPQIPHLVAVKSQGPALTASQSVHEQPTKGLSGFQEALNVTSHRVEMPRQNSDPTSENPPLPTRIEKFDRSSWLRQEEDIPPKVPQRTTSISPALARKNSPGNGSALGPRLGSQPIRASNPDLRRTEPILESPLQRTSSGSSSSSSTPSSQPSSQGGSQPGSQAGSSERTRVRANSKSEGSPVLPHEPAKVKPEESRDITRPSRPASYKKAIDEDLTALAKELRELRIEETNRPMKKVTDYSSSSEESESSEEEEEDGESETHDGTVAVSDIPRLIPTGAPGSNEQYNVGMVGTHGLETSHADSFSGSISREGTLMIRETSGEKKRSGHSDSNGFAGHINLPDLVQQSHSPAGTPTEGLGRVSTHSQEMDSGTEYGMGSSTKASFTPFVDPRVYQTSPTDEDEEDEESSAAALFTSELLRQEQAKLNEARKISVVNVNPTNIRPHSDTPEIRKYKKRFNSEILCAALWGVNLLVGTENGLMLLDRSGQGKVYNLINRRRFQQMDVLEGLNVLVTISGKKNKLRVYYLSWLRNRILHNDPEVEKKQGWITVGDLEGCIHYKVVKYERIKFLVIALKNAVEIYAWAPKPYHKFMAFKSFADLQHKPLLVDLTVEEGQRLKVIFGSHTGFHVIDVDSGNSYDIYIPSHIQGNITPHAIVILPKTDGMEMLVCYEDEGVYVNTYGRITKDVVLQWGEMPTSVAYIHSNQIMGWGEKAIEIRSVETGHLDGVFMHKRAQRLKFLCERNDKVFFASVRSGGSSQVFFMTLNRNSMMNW

As to `COc1ccc(-c2cc(Nc3ccc4[nH]ccc4c3)n[nH]2)cc1` [Compound 1, N-(5-(4-methoxyphenyl)-1H-pyrazol-3-yl)-1H-indol-5-amine], the activity at 1 µM at TNIK [1] was determined as 16%.
As for `COc1ccc(-c2cc(Nc3ccc4[nH]ncc4c3)n[nH]2)cc1` [Compound 2, N-(5-(4-methoxyphenyl)-1H-pyrazol-3-yl)-1H-indazol-5-amine], the activity at 1 µM on TNIK [1] was determined as 21%. Also, the IC50 is 4.5 µM in the experiment with SW480 cells, 94 nM against TNIK [2] and 1.2 µM with SW620 cells. Further, the inhibition at 1 µM on TNIK [2] was 99%.
`COc1ccc(-c2cc(Nc3ccc4[nH]c(=O)[nH]c4c3)n[nH]2)cc1` [Compound 3, 5-((5-(4-methoxyphenyl)-1H-pyrazol-3-yl)amino)-1,3-dihydro-2H-benzo[d]imidazol-2-one]: the activity at 1 µM on TNIK [1] was 7%. The molecule further had an inhibition at 1 µM against TNIK [2] of 79%.
`COc1ccc(-c2cc(Nc3ccc4cn[nH]c4c3)n[nH]2)cc1` [Compound 4, N-(5-(4-methoxyphenyl)-1H-pyrazol-3-yl)-1H-indazol-6-amine] returned an activity at 1 µM at TNIK [1] of 8%.
On TNIK [2], `O=C1CCc2cc(Nc3cc(-c4ccc(O)cc4)[nH]n3)ccc2N1` [Compound 6, 6-((5-(4-hydroxyphenyl)-1H-pyrazol-3-yl)amino)-3,4-dihydroquinolin-2(1H)-one] came in with an IC50 of 62 nM and an inhibition at 1 µM of 96%.
`O=C1CCc2cc(Nc3cc(-c4ccc(-n5cccn5)cc4)[nH]n3)ccc2N1` [Compound 7, 6-((5-(4-(1H-pyrazol-1-yl)phenyl)-1H-pyrazol-3-yl)amino)-3,4-dihydroquinolin-2(1H)-one]: on TNIK [2], it took 1 nM to reach half-maximal inhibition (IC50).
`O=C1Cc2cc(Nc3cc(-c4ccc(O)c(F)c4)[nH]n3)ccc2N1` [Compound 8, 5-((5-(3-fluoro-4-hydroxyphenyl)-1H-pyrazol-3-yl)amino)indolin-2-one]: on TNIK [2], the IC50 turned out to be 1 nM and 1 µM produced 88% inhibition.
On TNIK [2], `O=C1CCc2cc(Nc3cc(-c4ccc(-n5ccnc5)cc4)[nH]n3)ccc2N1` [Compound 9, 6-((5-(4-(1H-imidazol-1-yl)phenyl)-1H-pyrazol-3-yl)amino)-3,4-dihydroquinolin-2(1H)-one] yielded an IC50 of 1 nM and an inhibition at 1 µM of 98%.
Consider `c1cnn(-c2ccc(-c3cc(Nc4ccc5[nH]ncc5c4)n[nH]3)cc2)c1` [Compound 10, N-(5-(4-(1H-pyrazol-1-yl)phenyl)-1H-pyrazol-3-yl)-1H-indazol-5-amine], for which, on TNIK [2], the IC50 was 55 nM and at 1 µM the inhibition was 99%.
At TNIK [2], `Oc1ccc(-c2cc(Nc3ccc4[nH]ncc4c3)n[nH]2)cc1` [Compound 11, 4-(3-((1H-indazol-5-yl)amino)-1H-pyrazol-5-yl)phenol] displayed an IC50 of 29 nM and an inhibition at 1 µM of 94%.
`Oc1ccc(-c2cc(Nc3ccc4[nH]ncc4c3)n[nH]2)cc1F` [Compound 12, 4-(3-((1H-indazol-5-yl)amino)-1H-pyrazol-5-yl)-2-fluorophenol]: the concentration for half-maximal inhibition (IC50) against TNIK [2] was determined as 45 nM; in the experiment on SW620 cells, 13 µM. The same molecule returned an inhibition at 1 µM at TNIK [2] of 93%.
Regarding `O=C1COc2cc(Nc3cc(-c4ccc(-n5cccn5)cc4)[nH]n3)ccc2N1` [Compound 13, 7-((5-(4-(1H-pyrazol-1-yl)phenyl)-1H-pyrazol-3-yl)amino)-2H-benzo[b][1,4]oxazin-3(4H)-one], on TNIK [2], the IC50 was determined as 7 nM and at 1 µM the inhibition was 90%.
In turn, `O=C1COc2cc(Nc3cc(-c4ccc(O)cc4)[nH]n3)ccc2N1` [Compound 14, 7-((5-(4-hydroxyphenyl)-1H-pyrazol-3-yl)amino)-2H-benzo[b][1,4]oxazin-3(4H)-one] had an inhibition at 1 µM on TNIK [2] of 97%.
As to `Cc1nc2cc(Nc3cc(-c4ccc(-n5cccn5)cc4)[nH]n3)ccc2[nH]1` [Compound 18, N-(5-(4-(1H-pyrazol-1-yl)phenyl)-1H-pyrazol-3-yl)-2-methyl-1H-benzo[d]imidazol-5-amine], the values for the IC50 with SW480 cells, against TNIK [2] and in the experiment with SW620 cells were 21 µM, 96 nM and 3.4 µM, respectively. This molecule came in with an inhibition at 1 µM on TNIK [2] of 99%.
